According to patent US11040981B2, “Pyrrolotriazine compounds and methods of inhibiting TAM kinases” (Syros Pharmaceuticals, Inc., priority 2017, dated 2021):

Experiments:
AXL = molecular target: T1, AXL (Homo sapiens, UniProt P30530); assay: TR-FRET kinase activity assay, AXL; assay type: biochemical; conditions: ATP at Km, 60 minutes
T1 sequence (P30530 26-894): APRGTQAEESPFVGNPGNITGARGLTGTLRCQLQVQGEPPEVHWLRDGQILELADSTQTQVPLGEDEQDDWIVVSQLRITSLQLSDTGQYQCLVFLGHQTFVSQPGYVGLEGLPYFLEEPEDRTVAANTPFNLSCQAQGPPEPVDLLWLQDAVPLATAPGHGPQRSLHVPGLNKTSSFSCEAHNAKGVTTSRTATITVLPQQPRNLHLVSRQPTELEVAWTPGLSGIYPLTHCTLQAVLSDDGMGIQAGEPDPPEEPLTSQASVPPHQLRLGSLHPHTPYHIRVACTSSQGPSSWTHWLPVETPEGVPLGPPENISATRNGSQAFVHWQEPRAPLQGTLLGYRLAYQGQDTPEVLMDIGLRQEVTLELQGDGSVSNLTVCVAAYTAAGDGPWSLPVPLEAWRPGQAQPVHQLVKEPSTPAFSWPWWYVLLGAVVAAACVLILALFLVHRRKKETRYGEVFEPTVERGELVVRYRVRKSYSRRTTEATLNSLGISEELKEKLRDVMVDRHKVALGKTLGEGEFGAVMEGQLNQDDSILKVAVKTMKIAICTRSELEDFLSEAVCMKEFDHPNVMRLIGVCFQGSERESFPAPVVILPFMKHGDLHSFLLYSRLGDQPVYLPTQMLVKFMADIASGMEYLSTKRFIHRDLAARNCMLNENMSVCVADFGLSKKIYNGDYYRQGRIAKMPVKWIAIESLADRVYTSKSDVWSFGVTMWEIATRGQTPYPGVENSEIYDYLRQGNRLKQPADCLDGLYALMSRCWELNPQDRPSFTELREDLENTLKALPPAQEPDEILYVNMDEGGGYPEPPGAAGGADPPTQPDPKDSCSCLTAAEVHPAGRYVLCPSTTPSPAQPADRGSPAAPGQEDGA
In short: (§1)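 Compounds were tested against each kinase with ATP set at its own Km and a labelled tyrosine peptide substrate. Following one hour at room temperature in buffer containing 10 mM MgCl2 and 1 mM DTT, phosphorylated product was detected by Europium antibody TR-FRET after EDTA quench, and IC50 values were calculated.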

FLT3 = molecular target: T2, FLT3 (Homo sapiens, UniProt P36888); assay: TR-FRET kinase activity assay, FLT3; assay type: biochemical; conditions: ATP at Km, 60 minutes
T2 sequence (P36888 27-993): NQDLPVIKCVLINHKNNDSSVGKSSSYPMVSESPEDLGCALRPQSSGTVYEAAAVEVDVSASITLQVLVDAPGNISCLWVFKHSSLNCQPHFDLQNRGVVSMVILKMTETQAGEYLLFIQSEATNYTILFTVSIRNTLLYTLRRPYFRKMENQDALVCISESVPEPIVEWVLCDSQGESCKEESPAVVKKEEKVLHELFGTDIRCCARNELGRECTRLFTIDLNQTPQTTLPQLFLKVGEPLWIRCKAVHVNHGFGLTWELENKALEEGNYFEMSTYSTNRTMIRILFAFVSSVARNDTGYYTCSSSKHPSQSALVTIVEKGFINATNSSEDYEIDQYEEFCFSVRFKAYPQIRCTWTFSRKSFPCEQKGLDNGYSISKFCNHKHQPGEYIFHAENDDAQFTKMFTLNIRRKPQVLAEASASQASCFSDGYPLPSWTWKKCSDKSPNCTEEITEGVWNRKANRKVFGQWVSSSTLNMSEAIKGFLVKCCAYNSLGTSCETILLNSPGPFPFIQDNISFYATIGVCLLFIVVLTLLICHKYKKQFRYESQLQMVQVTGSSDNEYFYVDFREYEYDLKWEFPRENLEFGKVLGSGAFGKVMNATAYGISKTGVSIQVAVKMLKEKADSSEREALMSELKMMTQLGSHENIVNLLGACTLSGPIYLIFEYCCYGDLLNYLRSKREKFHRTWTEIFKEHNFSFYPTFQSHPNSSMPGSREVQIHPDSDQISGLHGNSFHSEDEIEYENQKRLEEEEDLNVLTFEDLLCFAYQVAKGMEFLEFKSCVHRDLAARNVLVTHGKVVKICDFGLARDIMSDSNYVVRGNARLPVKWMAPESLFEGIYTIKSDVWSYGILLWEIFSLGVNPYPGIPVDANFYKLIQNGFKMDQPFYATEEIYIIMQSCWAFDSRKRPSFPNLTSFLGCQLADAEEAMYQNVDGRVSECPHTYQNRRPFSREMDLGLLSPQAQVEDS
In short: as §1

Row | IC50 (AXL) [nM] | IC50 (FLT3) [nM] | SMILES
1 | ≤ 100 | 100 to 1000 | COC[C@H](C)Nc1ncc2c(-c3cnn(CS(C)(=O)=O)c3)cc([C@H]3CC[C@H](O)CC3)n2n1 [Compound 419]
2 | ≤ 100 | 100 to 1000 | COC[C@H](C)Nc1ncc2c(-c3cnn(CC4COC4)c3)cc([C@H]3CC[C@H](O)CC3)n2n1 [Compound 420]
3 | ≤ 100 | 100 to 1000 | COC[C@H](C)Nc1ncc2c(-c3cnn([C@@H]4CO[C@H]5OCC[C@H]54)c3)cc([C@H]3CC[C@H](O)CC3)n2n1 [Compound 422]
